Measurements from US8003785B2 (Takeda Pharmaceutical Company Limited, priority 2008, dated 2011).

target: T1, PLK1 (Homo sapiens, UniProt P53350); assay: Biochemical Characterization Assay: HTRF kinase assay, GST-PLK1 phosphorylation of GST-p53; details: GST-PLK1, GST-p53 substrate
T1 construct: Full-length, active GST-PLK1 is purified from Sf9 insect cells; made in house; host or cells: Sf9 insect cells
Summary of the method: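 Full-length active GST-PLK1 (Sf9, 3 ug/mL) phosphorylated full-length GST-p53 (E. coli) in Kinase Assay Buffer for 35 min at 37 °C. Stopped with EDTA; phospho-p53 detected by HTRF with anti-phospho-p53, Eu-anti-rabbit and APC-anti-GST antibodies.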

T1 sequence (P53350 whole entry): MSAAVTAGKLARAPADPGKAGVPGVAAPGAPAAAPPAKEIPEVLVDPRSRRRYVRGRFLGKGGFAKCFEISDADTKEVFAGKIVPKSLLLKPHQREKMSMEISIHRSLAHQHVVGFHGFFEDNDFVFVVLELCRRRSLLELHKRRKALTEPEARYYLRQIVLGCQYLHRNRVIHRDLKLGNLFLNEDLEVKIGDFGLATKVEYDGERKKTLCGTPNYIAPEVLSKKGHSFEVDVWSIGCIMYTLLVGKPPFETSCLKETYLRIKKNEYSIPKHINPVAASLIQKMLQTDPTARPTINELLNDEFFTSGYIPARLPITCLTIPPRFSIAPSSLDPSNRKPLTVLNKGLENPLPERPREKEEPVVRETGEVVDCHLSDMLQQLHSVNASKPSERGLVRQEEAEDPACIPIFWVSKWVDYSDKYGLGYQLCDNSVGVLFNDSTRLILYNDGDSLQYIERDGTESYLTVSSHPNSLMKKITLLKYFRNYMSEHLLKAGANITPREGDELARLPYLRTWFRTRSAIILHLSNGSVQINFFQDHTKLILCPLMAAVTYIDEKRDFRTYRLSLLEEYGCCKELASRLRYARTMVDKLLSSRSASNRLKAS

| SMILES | IC50 [nM] |
| --- | --- |
| COc1cc(C(=O)NC2CCN(CC(F)F)CC2)ccc1Nc1ncc2c(n1)N(C1CCCCC1)CC(F)(F)C(=O)N2C [Example I-266, 4-(9-cyclohexyl-7,7-difluoro-5-methyl-6-oxo-6,7,8,9-tetrahydro-5H-pyrimido[4,5-b][1,4]diazepin-2-ylamino)-N-[1-(2,2-difluoro-ethyl)-piperidin-4-yl]-3-methoxy-benzamide] | 1 to 50 |
| COc1cc(C(=O)NC2CCN(CCO)CC2)ccc1Nc1ncc2c(n1)N(C1CCCCC1)CC(F)(F)C(=O)N2C [Example I-267, 4-(9-cyclohexyl-7,7-difluoro-5-methyl-6-oxo-6,7,8,9-tetrahydro-5H-pyrimido[4,5-b][1,4]diazepin-2-ylamino)-N-[1-(2-hydroxy-ethyl)-piperidin-4-yl]-3-methoxy-benzamide] | 1 to 50 |
| COc1cc(C(=O)NC2CCN(S(C)(=O)=O)CC2)ccc1Nc1ncc2c(n1)N(C1CCCCC1)CC(F)(F)C(=O)N2C [Example I-268, 4-(9-cyclohexyl-7,7-difluoro-5-methyl-6-oxo-6,7,8,9-tetrahydro-5H-pyrimido[4,5-b][1,4]diazepin-2-ylamino)-N-(1-methanesulfonyl-piperidin-4-yl)-3-methoxy-benzamide] | 51 to 500 |
| COc1cc(C(=O)O)ccc1Nc1ncc2c(n1)N(CCc1cccs1)CC(F)(F)C(=O)N2C [Example I-269, 4-[7,7-difluoro-5-methyl-6-oxo-9-(2-thiophen-2-yl-ethyl)-6,7,8,9-tetrahydro-5-pyrimido[4,5-b]diazepin-2-ylamino]-3-methoxy-benzoic acid] | 51 to 500 |
| COc1cc(C(=O)NC2CCN(C)CC2)ccc1Nc1ncc2c(n1)N(CCc1cccs1)CC(F)(F)C(=O)N2C [Example I-270, 4-[7,7-difluoro-5-methyl-6-oxo-9-(2-thiophen-2-yl-ethyl)-6,7,8,9-tetrahydro-5H-pyrimido[4,5-b][1,4]diazepin-2-ylamino]-3-methoxy-N-(1-methyl-piperidin-4-yl)-benzamide] | 1 to 50 |
| COc1cc(C(N)=O)ccc1Nc1ncc2c(n1)N(CCc1cccs1)CC(F)(F)C(=O)N2C [Example I-271, 4-[7,7-difluoro-5-methyl-6-oxo-9-(2-thiophen-2-yl-ethyl)-6,7,8,9-tetrahydro-5H-pyrimido[4,5-b][1,4]diazepin-2-ylamino]-3-methoxy-benzamide] | 51 to 500 |
| COc1cc(C(=O)O)ccc1Nc1ncc2c(n1)N(CCc1ccccc1)CC(F)(F)C(=O)N2C [Example I-275, 4-(7,7-difluoro-5-methyl-6-oxo-9-phenethyl-6,7,8,9-tetrahydro-5H-pyrimido[4,5-b][1,4]diazepin-2-ylamino)-3-methoxy-benzoic acid] | 51 to 500 |
| COc1cc(C(=O)NC2CCN(C)CC2)ccc1Nc1ncc2c(n1)N(CCc1ccccc1)CC(F)(F)C(=O)N2C [Example I-276, 4-(7,7-difluoro-5-methyl-6-oxo-9-phenethyl-6,7,8,9-tetrahydro-5!-pyrimido[4,5-b][1,4]diazepin-2-ylamino)-3-methoxy-N-(1-methyl-piperidin-4-yl)-benzamide] | 1 to 50 |
| COc1cc(C(N)=O)ccc1Nc1ncc2c(n1)N(CCc1ccccc1)CC(F)(F)C(=O)N2C [Example I-277, 4-(7,7-difluoro-5-methyl-6-oxo-9-phenethyl-6,7,8,9-tetrahydro-5H-pyrimido[4,5-b][1,4]diazepin-2-ylamino)-3-methoxy-benzamide] | 51 to 500 |
| CNC(=O)c1ccc(Nc2ncc3c(n2)N(CCc2ccccc2)CC(F)(F)C(=O)N3C)c(OC)c1 [Example I-278, 4-(7,7-difluoro-5-methyl-6-oxo-9-phenethyl-6,7,8,9-tetrahydro-5H-pyrimido[4,5-b][1,4]diazepin-2-ylamino)-3-methoxy-N-methyl-benzamide] | 51 to 500 |
| COc1cc(C(=O)NC2CCOCC2)ccc1Nc1ncc2c(n1)N(CCc1ccccc1)CC(F)(F)C(=O)N2C [Example I-280, 4-(7,7-difluoro-5-methyl-6-oxo-9-phenethyl-6,7,8,9-tetrahydro-5H-pyrimido[4,5-b][1,4]diazepin-2-ylamino)-3-methoxy-N-(tetrahydro-pyran-4-yl)-benzamide] | 51 to 500 |
| COc1cc(C(=O)O)ccc1Nc1ncc2c(n1)N(CCCc1ccccc1)CC(F)(F)C(=O)N2C [Example I-281, 4-[7,7-difluoro-5-methyl-6-oxo-9-(3-phenyl-propyl)-6,7,8,9-tetrahydro-5H-pyrimido[4,5-b][1,4]diazepin-2-ylamino]-3-methoxy-benzoic acid] | 51 to 500 |
| CNC(=O)c1ccc(Nc2ncc3c(n2)N(CCCc2ccccc2)CC(F)(F)C(=O)N3C)c(OC)c1 [Example I-284, 4-[7,7-difluoro-5-methyl-6-oxo-9-(3-phenyl-propyl)-6,7,8,9-tetrahydro-5H-pyrimido[4,5-b][1,4]diazepin-2-ylamino]-3-methoxy-N-methyl-benzamide] | 51 to 500 |
| COc1cc(C(=O)NCCCN(C)C)ccc1Nc1ncc2c(n1)N(CCCc1ccccc1)CC(F)(F)C(=O)N2C [Example I-285, 4-[7,7-difluoro-5-methyl-6-oxo-9-(3-phenyl-propyl)-6,7,8,9-tetrahydro-5H-pyrimido[4,5-b][1,4]diazepin-2-ylamino]-N-(3-dimethylamino-propyl)-3-methoxy-benzamide] | 1 to 50 |
| COc1cc(C(=O)NC2CCOCC2)ccc1Nc1ncc2c(n1)N(CCCc1ccccc1)CC(F)(F)C(=O)N2C [Example I-286, 4-[7,7-difluoro-5-methyl-6-oxo-9-(3-phenyl-propyl)-6,7,8,9-tetrahydro-5H-pyrimido[4,5-b][1,4]diazepin-2-ylamino]-3-methoxy-N-(tetrahydro-pyran-4-yl)-benzamide] | 51 to 500 |
| COc1cc(C(=O)O)ccc1Nc1ncc2c(n1)N(C(C)C)CC(F)(F)C(=O)N2C [Example I-292, 4-(7,7-difluoro-9-isopropyl-5-methyl-6-oxo-6,7,8,9-tetrahydro-5H-pyrimido[4,5-b][1,4]diazepin-2-ylamino)-3-methoxy-benzoic acid] | 51 to 500 |
| COc1cc(C(=O)NC2CCN(C)CC2)ccc1Nc1ncc2c(n1)N(C(C)C)CC(F)(F)C(=O)N2C [Example I-293, 4-(7,7-difluoro-9-isopropyl-5-methyl-6-oxo-6,7,8,9-tetrahydro-5H-pyrimido[4,5-b][1,4]diazepin-2-ylamino)-3-methoxy-N-(1-methyl-piperidin-4-yl)-benzamide] | 1 to 50 |
| COc1cc(C(=O)NCCCN(C)C)ccc1Nc1ncc2c(n1)N(C(C)C)CC(F)(F)C(=O)N2C [Example I-296, 4-(7,7-difluoro-9-isopropyl-5-methyl-6-oxo-6,7,8,9-tetrahydro-5H-pyrimido[4,5-b][1,4]diazepin-2-ylamino)-N-(3-dimethylamino-propyl)-3-methoxy-benzamide] | 1 to 50 |

Second part, the compound after the results:

| IC50 [nM] | SMILES |
| --- | --- |
| 1 to 50 | CNC(=O)c1ccc(Nc2ncc3c(n2)N(CCc2cccs2)CC(F)(F)C(=O)N3C)c(OC)c1 [Example I-272, 4-[7,7-difluoro-5-methyl-6-oxo-9-(2-thiophen-2-yl-ethyl)-6,7,8,9-tetrahydro-5H-pyrimido[4,5-b][1,4]diazepin-2-ylamino]-3-methoxy-N-methyl-benzamide] |
| 1 to 50 | COc1cc(C(=O)NCCCN(C)C)ccc1Nc1ncc2c(n1)N(CCc1cccs1)CC(F)(F)C(=O)N2C [Example I-273, 4-[7,7-difluoro-5-methyl-6-oxo-9-(2-thiophen-2-yl-ethyl)-6,7,8,9-tetrahydro-5H-pyrimido[4,5-b][1,4]diazepin-2-ylamino]-N-(3-dimethylamino-propyl)-3-methoxy-benzamide] |
| 51 to 500 | COc1cc(C(=O)NC2CCOCC2)ccc1Nc1ncc2c(n1)N(CCc1cccs1)CC(F)(F)C(=O)N2C [Example I-274, 4-[7,7-difluoro-5-methyl-6-oxo-9-(2-thiophen-2-yl-ethyl)-6,7,8,9-tetrahydro-5H-pyrimido[4,5-b][1,4]diazepin-2-ylamino]-3-methoxy-N-(tetrahydro-pyran-4-yl)-benzamide] |
| 51 to 500 | COc1cc(C(=O)NCCCN(C)C)ccc1Nc1ncc2c(n1)N(CCc1ccccc1)CC(F)(F)C(=O)N2C [Example I-279, 4-(7,7-difluoro-5-methyl-6-oxo-9-phenethyl-6,7,8,9-tetrahydro-5H-pyrimido[4,5-b][1,4]diazepin-2-ylamino)-N-(3-dimethylamino-propyl)-3-methoxy-benzamide] |
| 1 to 50 | COc1cc(C(=O)NC2CCN(C)CC2)ccc1Nc1ncc2c(n1)N(CCCc1ccccc1)CC(F)(F)C(=O)N2C [Example I-282, 4-[7,7-difluoro-5-methyl-6-oxo-9-(3-phenyl-propyl)-6,7,8,9-tetrahydro-5H-pyrimido[4,5-b][1,4]diazepin-2-ylamino]-3-methoxy-N-(1-methyl-piperidin-4-yl)-benzamide] |
| 51 to 500 | COc1cc(C(N)=O)ccc1Nc1ncc2c(n1)N(CCCc1ccccc1)CC(F)(F)C(=O)N2C [Example I-283, 4-[7,7-difluoro-5-methyl-6-oxo-9-(3-phenyl-propyl)-6,7,8,9-tetrahydro-5H-pyrimido[4,5-b][1,4]diazepin-2-ylamino]-3-methoxy-benzamide] |
| 51 to 500 | COc1ccc(CN2CC(F)(F)C(=O)N(C)c3cnc(Nc4ccc(C(=O)NC5CCN(C)CC5)cc4OC)nc32)cc1 [Example I-291, 4-[7,7-difluoro-9-(4-methoxy-benzyl)-5-methyl-6-oxo-6,7,8,9-tetrahydro-5H-pyrimido[4,5-b][1,4]diazepin-2-ylamino]-3-methoxy-N-(1-methyl-piperidin-4-yl)-benzamide] |
| 1 to 50 | COc1cc(C(N)=O)ccc1Nc1ncc2c(n1)N(C(C)C)CC(F)(F)C(=O)N2C [Example I-294, 4-(7,7-difluoro-9-isopropyl-5-methyl-6-oxo-6,7,8,9-tetrahydro-5H-pyrimido[4,5-b][1,4]diazepin-2-ylamino)-3-methoxy-benzamide] |
| 1 to 50 | CNC(=O)c1ccc(Nc2ncc3c(n2)N(C(C)C)CC(F)(F)C(=O)N3C)c(OC)c1 [Example I-295, 4-(7,7-difluoro-9-isopropyl-5-methyl-6-oxo-6,7,8,9-tetrahydro-5H-pyrimido[4,5-b][1,4]diazepin-2-ylamino)-3-methoxy-N-methyl-benzamide] |
